By IC50 is commonly meant the midpoint of a concentration-inhibition curve. As usually defined, the logD is lipophilicity at a set pH, counting ionised and neutral species. In general, Solubility refers to how much of the substance goes into solution per volume.

Data set [1] concerns S30 extracts of E. coli, coupled Transcription-Translation (RNA polymerase).
The conditions of data set [2]: cited from earlier work.
The test system of data set [3] is H. influenzae acrB. As to the kind of experiment: Antibacterial activity. The format is cell-based, Haemophilus influenzae. The settings on record: efflux-negative strain.
The subject of data set [4] is rabbit reticulocytes, eukaryotic TT. Description: Eukaryotic TT assay using rabbit reticulocytes. Format: biochemical. Conditions: read-out: IC50 eukaryotic TT assay, data not shown.
For data set [5] the following is noted: logD7.4.
The conditions of data set [6]: equilibrium solubility.
In data set [7] the test system is S30 extracts of E. coli, coupled Transcription-Translation (RNA polymerase). Conditions: high-throughput screen hit; cited from earlier work.

`Cc1noc(C)c1S(=O)(=O)Nc1c(N2CCC(C)CC2)c(=O)c1=O` [compound 5, 3,5-dimethyl-N-(2-(4-methylpiperidin-1-yl)-3,4-dioxocyclobut-1-enyl)isoxazole-4-sulfonamide]: the “biochemical activity in TT assay, in words” value (“biochemical activity” below) in data set [1] is “inactive”.

myxopyronin: the “plasma protein binding, in words” value in data set [2] was “highly plasma protein bound”.

On to `Cc1noc(C)c1S(=O)(=O)Nc1c(N2CCC(NCc3ccc(C(F)(F)F)cc3)CC2)c(=O)c1=O` [compound 14, N-(3,4-dioxo-2-(4-(4-(trifluoromethyl)benzylamino)piperidin-1-yl)cyclobut-1-enyl)-3,5-dimethylisoxazole-4-sulfonamide], for which the “improvement of free fraction (fu)” value (compound 14 versus compound 8) was found to be 7 fold. Further, the “reduction of free fraction” value (compound 14 versus compound 13) is recorded as “four”.

As to `Cc1nn(C(F)F)cc1S(=O)(=O)Nc1c(N2CCC(Cc3ccccc3)CC2)c(=O)c1=O` [compound 3, N-(2-(4-benzylpiperidin-1-yl)-3,4-dioxocyclobut-1-enyl)-1-(difluoromethyl)-3-methyl-1H-pyrazole-4-sulfonamide], the “biochemical activity” value in data set [1] is “biochemically active”.

Take `Cc1noc(C)c1S(=O)(=O)Nc1c(N2CCC(N(C)CC3CCCCC3)CC2)c(=O)c1=O` [compound 17, N-(2-(4-((cyclohexylmethyl)(methyl)amino)piperidin-1-yl)-3,4-dioxocyclobut-1-enyl)-3,5-dimethylisoxazole-4-sulfonamide]: the “biochemical activity” value in data set [1] is “inactive”.

Take `O=c1c(NS(=O)(=O)c2ccccc2)c(N2CCC(Cc3ccccc3)CC2)c1=O` [compound 2, N-(2-(4-benzylpiperidin-1-yl)-3,4-dioxocyclobut-1-enyl)benzenesulfonamide]: the “reduction in activity/potency in the TT assay” value in data set [1] (compared to compound 1) is recorded as 7 fold.

Consider “3,5-dimethyl-N-(2-(4-(4-methylbenzyl)piperidin-1-yl)-3,4-dioxocyclobut-1-enyl)isoxazole-4-sulfonamide [compound 1]”, for which the “MIC H. influenzae acrB” value in data set [3] stood at 200 µM. The concentration for half-maximal inhibition (IC50) was more than 100000 nM in data set [4] and 280 nM in data set [1] (read-out: IC50 Eco-TT, E. coli coupled transcription-translation assay). The logD in data set [5] was 0.1. Moreover, the “fu, compound fraction unbound to human plasma protein” value (human plasma, minimum detection level 1%) was less than 1%. In addition, the Solubility in data set [6] is more than 1000 µM. Besides, the “half maximal inhibitory concentration (IC50), TT assay” value in data set [7] is “sub-micromolar”.

As for `Cc1noc(C)c1C(=O)Nc1c(N2CCC(Cc3ccccc3)CC2)c(=O)c1=O` [compound 4, N-(2-(4-benzylpiperidin-1-yl)-3,4-dioxocyclobut-1-enyl)-3,5-dimethylisoxazole-4-carboxamide], the “biochemical activity” value in data set [1] is “inactive”.

As to `Cc1noc(C)c1S(=O)(=O)Nc1c(N2CCC(c3ccccc3)CC2)c(=O)c1=O` [compound 6, N-(3,4-dioxo-2-(4-phenylpiperidin-1-yl)cyclobut-1-enyl)-3,5-dimethylisoxazole-4-sulfonamide], the “biochemical activity” value in data set [1] is listed as “much less active”.

Source of the values: publication PMC4658208 (Journal of medicinal chemistry, 2015).
